# In patent US12319652B2, “Salts and solid forms of (R)-1-(5-methoxy-1H-indol-1-yl)-N,N-dimethylpropan-2-amine” (priority 2021, dated 2025):
# Key:
# Format in all cases: physicochemical
# [1] = Dynamic vapor sorption (DVS); settings: for DVS isotherm type / hygroscopicity: 0 to 90 to 0% RH; for DVS mass change at 90.0% RH / DVS mass change at 0.0% RH / DVS mass change at 5.0% RH / DVS mass change at 10.0% RH / DVS mass change at 15.0% RH / DVS mass change at 20.0% RH / DVS mass change at 25.0% RH / DVS mass change at 30.0% RH / DVS mass change at 40.0% RH / DVS mass change at 50.0% RH / DVS mass change at 60.0% RH / DVS mass change at 70.0% RH / DVS mass change at 80.0% RH: dm/dt <0.002%
# Procedure: There are two main methods to use, one is by time where the equilibration is given by a fixed time, i.e., 1 hour per step and is appropriate for an unknown phase. The second, is by mass per time unit (dm/dt) of 0.002%/min; that is when the difference in weight is less than 0.002%, the instrument moves onto the next step. For unknown hygroscopicity, the method by time is indicated because it gives an idea of water affinity without wasting much time. Ideally the analyses are repeated using the mass equilibration method to confirm. By experience for hygroscopic samples, the analysis can continue for days. For non-hygroscopic samples the difference between the two methods may not be significant.
# Consequently, amorphous batch 1 was analyzed by the fixed time method and once compound 1 fumarate crystalline polymorphic Form A was generated the analyses was repeated as mass per unit time equilibrated @dm/dt ([…]) and is given below (refer to FIG. 12).
# (§1) The moisture sorption properties of the feed API were analysed by DVS Intrinsic instrument (Surface Measurement System). Approximately 20 to 50 mg of API was weighed onto an aluminium pan and loaded into the instrument equilibrated at 25° C. The sample was equilibrated under a dry atmosphere (0% relative humidity) for 60 minutes, before increasing the humidity from 0% to 30% at 5%4 step increment and from 30% to 90% at 10% step increment. A desorption cycle was also applied from 90% to 30% (10% step decrement) and from 30% to 0% (5% step decrement). A rate of change in mass per time unit (dm/dt) of 0.002%/min was set as the equilibrium parameter. Kinetic and isotherm graphs were calculated.
# Specimens were equilibrated at 0% RH for 60 min, prior to DVS analyses (stepped increment % RH up to 90% RH and stepped decrement % RH down to 0% RH.
# as §1, with “5%” for “5%4”
# [2] = Solubility determinations in SIF buffers (FaSSIF, FeSSIF, FaSSGF); settings: 37° C. up to 24 h
# Summary of the method: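 Salt forms suspended at 30 mg/ml in FaSSIF, FeSSIF or FaSSGF at 37° C. for 24 h, pH kept in range with 1 M HCl or NaOH. Supernatants sampled at 1, 3, 6 and 24 h, centrifuged and quantified by HPLC as compound 1 free base against amorphous compound 1 calibrants; pellets checked by XRPD for form change.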
# [3] = In-situ hydration evaluation of monofumarate Form A; settings: ambient
# Procedure: An XRPD specimen of monofumarate Form A was prepared and treated with sequential aliquots of water.
# An XRPD plate was made up with a small amount of compound 1·Fumarate (batch 1, 5 mg, 1.0 wt) and analysed by XRPD on the 9-minute method and labelled as T=0. After the run, the sample was charged with purified water (10 μL, 2.0 vol) and analysed again by XRPD, labelled as T=9. This was repeated twice more for T=18 and T=27. The sample was left to stand under ambient conditions (15-25° C., ambient humidity, and pressure) in the fume hood for 33 h (FIG. 23).
smiles,measurement,setting,value
COc1ccc2c(ccn2C[C@@H](C)N(C)C)c1.O=C(O)/C=C/C(=O)O,"RH above which pronounced mono, multilayer sorption and probable deliquescence occurred",[1],> 80 % RH
same,DVS isotherm type / hygroscopicity,[1]; listed as Form A,DVS mass per unit time equlibrated @ dm/dt (0.0002%/min) on Form A was performed (specimen was deliquescent by DVS).
same,DVS isotherm type / hygroscopicity,[1]; listed as compound 1 fumarate crystalline polymorphic Form A,deliquescent type isotherm
same,DVS weight gain at 70% RH,[1]; 70% RH (printed 70° RH in Example 8),ca. 1 % w/w
same,DVS mass change at 90.0% RH,[1]; desorption step (second 90.0 entry),9.440%
same,DVS mass change at 0.0% RH,[1]; desorption step,0.085%
same,DVS mass change at 5.0% RH,[1]; desorption step,0.113%
same,DVS mass change at 10.0% RH,[1]; desorption step,0.141%
same,DVS mass change at 15.0% RH,[1]; desorption step,0.169%
same,DVS mass change at 20.0% RH,[1]; desorption step,0.201%
same,DVS mass change at 25.0% RH,[1]; desorption step,0.238%
same,DVS mass change at 30.0% RH,[1]; desorption step,0.279%
same,DVS mass change at 40.0% RH,[1]; desorption step,0.374%
same,DVS mass change at 50.0% RH,[1]; desorption step,0.476%
same,DVS mass change at 60.0% RH,[1]; desorption step,0.619%
same,DVS mass change at 70.0% RH,[1]; desorption step,0.885%
same,DVS mass change at 80.0% RH,[1]; desorption step,2.087%
same,DVS mass change at 0.0% RH,[1]; sorption step,0.00%
same,DVS mass change at 5.0% RH,[1]; sorption step,0.021%
same,DVS mass change at 10.0% RH,[1]; sorption step,0.047%
same,DVS mass change at 15.0% RH,[1]; sorption step,0.068%
same,DVS mass change at 20.0% RH,[1]; sorption step,0.088%
same,DVS mass change at 25.0% RH,[1]; sorption step,0.107%
same,DVS mass change at 30.0% RH,[1]; sorption step,0.125%
same,DVS mass change at 40.0% RH,[1]; sorption step,0.173%
same,DVS mass change at 50.0% RH,[1]; sorption step,0.242%
same,DVS mass change at 60.0% RH,[1]; sorption step,0.366%
same,DVS mass change at 70.0% RH,[1]; sorption step,0.590%
same,DVS mass change at 80.0% RH,[1]; sorption step,0.174%
same,DVS mass change at 90.0% RH,[1]; sorption step,9.440%
same,Solubility in FaSSGF,[2],"Solubility in SIF buffers: Soluble in FaSSIF, FeSSIF and FaSSGF at 37°"
same,Solubility in FaSSIF,[2],"Solubility in SIF buffers: Soluble in FaSSIF, FeSSIF and FaSSGF at 37°"
same,Solubility in FeSSIF,[2],"Solubility in SIF buffers: Soluble in FaSSIF, FeSSIF and FaSSGF at 37°"
same,Form change on treatment with sequential aliquots of water (XRPD),[3],conversion into its amorphous form
